Measurements from US5283193A, “Process for producing optically active α-substituted organic acid and microorganism and enzyme used therefor” (Asahi Kasei Kogyo K.K., priority 1988, dated 1994).

These compounds were tested on Nitrilase isolated from Acinetobacter sp. AK 226 strain (assay: Substrate specificity of purified nitrilase (hydrolysis of nitriles to organic acid and ammonia)). Conditions: not given.

Row | Compound | Relative activity
1 | N#CC(Br)CBr (stereo not shown) [2,3-Dibromopropionitrile] | 90.3 ×10^2%
2 | N#CC(N)c1ccccc1 (stereo not shown) [2-Phenylglycinonitrile] | 0.000 ×10^2%
3 | CC#N [Acetonitrile] | 45.3 ×10^2%
4 | C=CC#N [Acrylonitrile] | 144 ×10^2%
5 | N#CCCl [Chloroacetonitrile] | 108 ×10^2%
6 | N#CCCCC#N [Glutaronitrile] | 50.9 ×10^2%
7 | N#CCO [Hydroxyacetonitrile] | 11.4 ×10^2%
8 | C=C(C)C#N [Methacrylonitrile] | 68.4 ×10^2%
9 | N#Cc1cccnc1 [Nicotinonitrile] | 52.7 ×10^2%
10 | CC(C)CCC#N [iso-Capronitrile] | 8.12 ×10^2%
11 | N#Cc1cccc(Cl)c1 [m-Chlorobenzonitrile] | 68.9 ×10^2%
12 | N#Cc1cccc([N+](=O)[O-])c1 [m-Nitrobenzonitrile] | 47.6 ×10^2%
13 | N#Cc1cccc(C#N)c1 [m-Phthalonitrile] | 80.7 ×10^2%
14 | Cc1cccc(C#N)c1 [m-Tolunitrile] | 74.8 ×10^2%
15 | CCCC#N [n-Butyronitrile] | 17.4 ×10^2%
16 | CCCCCC#N [n-Capronitrile] | 5.93 ×10^2%
17 | N#Cc1ccccc1F [o-Fluorobenzonitrile] | 50.4 ×10^2%
18 | Cc1ccccc1C#N [o-Tolunitrile] | 0.743 ×10^2%
19 | N#Cc1ccc(F)cc1 [p-Fluorobenzonitrile] | 83.9 ×10^2%
20 | CC(C#N)c1ccccc1 (stereo not drawn) [α-Phenylpropionitrile] | 0.534 ×10^2%
21 | Thiopheneacetonitrile | 45.5 ×10^2%

Same assay, conditions: racemic substrate

Row | Reaction rate with the S isomer compared with the R isomer | Compound
22 | much higher | CC(C)Cc1ccc(C(C)C#N)cc1 (stereo not shown)
